Assay results as given in paper PMC11855827, “High-Throughput Screening of Five Compound Libraries for Anthelmintic Activity and Toxicity Leads to the Discovery of Two Flavonoid Compounds” (International Journal of Molecular Sciences, 2025).
Read-outs that look alike come from different tables or passages of the source. Marks after values point to notes of the source that are not given here.

How the values were obtained:
C. elegans [1] = assay: C. elegans motility dose-response (DR) assay; design: species or system Caenorhabditis elegans
[2] = test system: H. contortus susceptible strain; assay: Egg hatch inhibition (EHI), ovicidal effect; design: species or system Haemonchus contortus; details: susceptible strain, 100 μM, NE = Not Effective at 100 μM, control thiabendazole 0.1 µg/mL
[3] = test system: T. circumcincta resistant strain; assay: Egg hatch inhibition (EHI), ovicidal effect; design: species or system Teladorsagia circumcincta; details: resistant strain, 100 μM; NE = Not Effective at 100 μM; control thiabendazole 0.1 µg/mL
[4] = test system: H. contortus susceptible strain; assay: Larval migration inhibition test (LMIT); design: species or system Haemonchus contortus; details: L3, 100 μM, NE = Not Effective at 100 μM, control ivermectin 8.75 µg/mL
Source text: (§1) Eggs and third instar larvae (L3) of H. contortus from a field strain and a resistant strain of T. circumcincta were used in the current trials. These parasitic forms were obtained from fresh feces of Merino and Churra sheep experimentally infected at the experimental farm of the Instituto de Ganadería de Montaña (IGM, CSIC, Gruyeros, León, Spain) and purified according to previously described methods. Briefly, eggs were taken from fresh feces, washed, centrifuged and floated with a saturated sodium chloride solution, then concentrated, counted and used in the assays. L3 were obtained by culturing feces at 25 °C for 13 d. L3 larvae were […] in 0.5% sodium hypochlorite solution for 10 min at room temperature and washed to avoid excess salt. After washing, they were concentrated and counted for use.
(§2) The viability of H. contortus larvae was assessed by the larval migration inhibition test (LMIT) according to previously described methods. Briefly, 700 µL aliquots containing 500–600 L3 were prepared for each compound. […] After a 24 h incubation at 28 °C, the compound was removed by three washes, leaving a final volume of 1400 µL. After the washes, three 400 µL aliquots were taken from each tube and transferred to a 96-well plate with a MultiScreen mesh filter. The plates were incubated for a further 24 h at 28 °C to allow the motile L3 to pass through the 20 µm mesh for counting. Then, the number of larvae present in each well was counted to determine percentage of larval migration for each compound: % Larval migration=number of larvae migrating in compound wells/number of larvae migrating in negative control×100
(§3) For the larvae, ivermectin at 8.75 µg/mL and DMSO 0.5% (v/v) were used as controls and at least 12 replicates were performed. […] EC50 were determined by plotting the percentage of viability of the L1 against the concentration of each compound, using the nonlinear fit analysis provided by the SigmaPlot® 10.1.

[5] = test system: T. circumcincta resistant strain; assay: Larval migration inhibition test (LMIT); design: species or system Teladorsagia circumcincta; details: for inhibition at 100 µM: Teladorsagia circumcincta, 24 h, read-out: T. circumcincta LMIT (%)
Source text: as §1, §2, §3

C. elegans [6] = test system: C. elegans
C. elegans [7] = assay: microbe, parasite or virus in culture; details: Caenorhabditis elegans
C. elegans [8] = details: read-out: EC50 found in the literature; cited from earlier work
[9] = read-out: EC50 (μM) at 24 h, C. elegans motility, DR assay
[10] = resistant strain, L3, 100 μM, NE = Not Effective at 100 μM, control ivermectin 8.75 µg/mL
[11] = C. elegans L4 motility, 110 μM, 0 h, mean ± SD of four experiments
[12] = C. elegans L4 motility, 110 μM, 24 h, mean ± SD of four experiments
[13] = Caenorhabditis elegans, 24 h, read-out: EC50 (μM) at 24 h, C. elegans motility, DR assay, 24 h
[14] = 0 h, read-out: Inhibition (%) 110 μM (0 h), C. elegans L4 motility, 110 μM, 0 h, mean ± SD of four experiments
[15] = 0 h, read-out: Percentage of motility inhibition 0 h, Table S2, C. elegans SS assay, 110 μM, 0 h, averages of 4 data points
[16] = 24 h, read-out: Inhibition (%) 110 μM (24 h), C. elegans L4 motility, 110 μM, 24 h, mean ± SD of four experiments
[17] = 24 h, read-out: Percentage of motility inhibition 24 h, Table S2, C. elegans SS assay, 110 μM, 24 h, averages of 4 data points

Row | Compound | EC50 (C. elegans [1]; [9]) [µM] | H. contortus EHI (%) [2] [%] | T. circumcincta EHI (%) [3] [%] | H. contortus LMIT (%) [4] [%] | Inhibition (%) 110 μM (0 h) (C. elegans [6]; [11]) [%] | Inhibition (%) 110 μM (24 h) (C. elegans [6]; [12]) [%] | EC50 (C. elegans [1]; [13]) [µM] | inhibition at 110 µM (C. elegans [7]; [14]) [%] | inhibition at 110 µM (C. elegans [7]; [16]) [%] | inhibition at 110 µM (C. elegans [7]; [17]) [%] | other results
1 | CC1(C)[C@H](OC(=O)c2ccccc2)CC[C@]2(C)C3=C([C@@H](O)C[C@@H]12)[C@@]1(C)CC[C@@]2(C)CC[C@@](C)(COC(=O)c4ccccc4)C[C@H]2[C@]1(C)CC3 [3,29-dibenzoyl rarounitriol] | 45.4 ± 5.1 | 0.0 | 0.0 | 0.0 | 40 ± 22 | 71 ± 19 | – | – | – | – | T. circumcincta LMIT (%) [5, 10]: 0.0 * %
2 | Cc1cc(O)cc(C)c1Cl [Chloroxylenol, reference compound] | – | – | – | – | – | – | > 60 | 100 | 100 | 100 | inhibition at 110 µM (C. elegans [7]; [15]): 100%
3 | C[C@@H]1CC[C@@]2(OC1)O[C@H]1C[C@H]3[C@@H]4CC=C5C[C@@H](O[C@@H]6O[C@H](CO)[C@@H](O[C@@H]7O[C@@H](C)[C@H](O)[C@@H](O)[C@H]7O)[C@H](O)[C@H]6O[C@@H]6O[C@@H](C)[C@H](O)[C@@H](O)[C@H]6O)CC[C@]5(C)[C@H]4CC[C@]3(C)[C@H]1[C@@H]2C [Dioscin] | – | – | – | – | – | – | – | – | – | – | EC50 (C. elegans [1]; Caenorhabditis elegans, read-out: EC50 (μM) at 24 h, C. elegans motility, DR assay): 37.8 ± 1.3 µM; inhibition at 100 µM ([4]; Haemonchus contortus, 24 h): 0%; inhibition at 100 µM [5]: 0%; inhibition at 110 µM (C. elegans [7]; 0 h, read-out: Inhibition (%) 110 μM (0 h)): 12 ± 1%; inhibition at 110 µM (C. elegans [7]; 24 h, read-out: Inhibition (%) 110 μM (24 h)): 79 ± 2%
4 | CCOc1ccc2nc3cc(N)ccc3c(N)c2c1 [Ethacridine lactate monohydrate, reference compound] | 28.2 ± 1 | 54.8 ± 11.7 | 0.0 | 0.0 | 73 ± 17 | 89 ± 4 | – | – | – | – | inhibition at 100 µM [5, 10]: 0%; inhibition at 110 µM (C. elegans [7]; [15]): 72%
5 | CCOc1ccc2nc3cc(N)ccc3c(N)c2c1 [Ethacridine lactate, reference compound] | – | – | 4.0 ± 1.5 | 4.9 ± 2.2 | – | – | 50.1 ± 1 | 66 ± 26 | 87 ± 6 | – | inhibition at 100 µM ([2]; Haemonchus contortus): 55.8 ± 5.1%
6 | CCc1c(Cl)c(O)c(Cl)c(O)c1C(=O)O[C@H]1[C@H](O)[C@H](OC)[C@H](OC/C2=C\C=C\C[C@H](O)/C(C)=C/[C@H](CC)[C@@H](O[C@@H]3OC(C)(C)[C@@H](OC(=O)C(C)C)[C@H](O)[C@@H]3O)/C(C)=C/C(C)=C/C[C@@H]([C@@H](C)O)OC2=O)O[C@@H]1C [Fidaxomicin, reference compound] | – | – | – | – | – | – | > 60 | 82 ± 7 | 89 ± 1 | 88 | –
7 | CN[C@H]1C[C@@H](N)[C@H](O)[C@@H](O[C@@H]2O[C@H](CO)[C@H](O)[C@@H]3OC4(O[C@H]23)O[C@H]([C@@H](N)CO)[C@H](O)[C@H](O)[C@H]4O)[C@@H]1O (some centres unmarked) [Hygromycin B, reference compound] | > 60 | – | – | – | – | – | – | – | – | – | Inhibition (%) 110 μM (0 h) (C. elegans [6]): 67 ± 28%; Inhibition (%) 110 μM (24 h) (C. elegans [6]): 89 ± 5%
8 | CC(C)=CCc1c(-c2ccc(O)cc2O)oc2c([C@H]3C=C(C)C[C@@H](c4ccc(O)cc4O)[C@@H]3C(=O)c3ccc(O)cc3O)c(O)cc(O)c2c1=O [Kuwanon G] | 34.7 ± 1.6 | 9.4 ± 1.8 | – | 0.0 | 0 ± 0 | 74 ± 5 | – | – | – | – | Percentage of motility inhibition 24 h (C. elegans [6]; Table S2, C. elegans SS assay, 110 μM, 24 h, averages of 4 data points): 75%
9 | c1ccc([C@H]2CN3CCSC3=N2)cc1 [Levamisole, reference compound] | – | – | – | – | – | – | 1.91 | 87 ± 10 | 61 ± 3 | – | EC50 (C. elegans [8]): 6.4 µM
10 | CO/N=C1\C[C@]2(C[C@@H]3C[C@@H](C/C=C(\C)C[C@@H](C)/C=C/C=C4\CO[C@@H]5[C@H](O)C(C)=C[C@@H](C(=O)O3)[C@]45O)O2)O[C@H](/C(C)=C/C(C)C)[C@H]1C [Moxidectin, reference compound] | – | – | – | – | – | – | 0.79 | 99 ± 1 | 85 ± 13 | 86 | EC50 (C. elegans [8]): 0.03 µM
